# Experiments:
# [1] = target: T1, Lysosomal acid glucosylceramidase (Homo sapiens) (UniProt P04062); experiment: Increase in non-lysosomal activity of glucocerebrosidase N370S mutant in human L444P cells at 75 uM relative to Conduritol B epoxide; type: cell-based
# T1 sequence (whole entry): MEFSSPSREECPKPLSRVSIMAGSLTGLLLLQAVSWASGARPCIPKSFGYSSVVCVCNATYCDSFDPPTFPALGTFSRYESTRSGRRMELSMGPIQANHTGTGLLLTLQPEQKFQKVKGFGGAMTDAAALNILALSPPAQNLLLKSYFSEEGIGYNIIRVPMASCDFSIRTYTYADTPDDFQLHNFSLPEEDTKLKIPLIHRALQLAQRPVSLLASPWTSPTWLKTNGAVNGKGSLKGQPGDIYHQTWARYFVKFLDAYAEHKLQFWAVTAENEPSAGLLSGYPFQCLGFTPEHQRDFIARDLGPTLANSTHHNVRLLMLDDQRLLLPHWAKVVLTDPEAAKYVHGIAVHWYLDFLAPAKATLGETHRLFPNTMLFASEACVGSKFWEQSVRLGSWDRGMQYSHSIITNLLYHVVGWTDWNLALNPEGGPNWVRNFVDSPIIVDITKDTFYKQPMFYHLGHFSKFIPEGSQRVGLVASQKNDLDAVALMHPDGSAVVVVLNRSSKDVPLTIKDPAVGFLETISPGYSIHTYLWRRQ
# L444P [2] = experiment: Increase in non-lysosomal activity of glucocerebrosidase […] mutant in human L444P cells at 150 uM relative to Conduritol B epoxide; type: cell-based
# [3] = target: T2, Lysosomal acid glucosylceramidase (Homo sapiens, UniProt P04062); experiment: Inhibition of glucocerebrosidase
# T2 sequence (P04062 whole entry): T1 sequence (whole entry)
# [4] = target: T1, Lysosomal acid glucosylceramidase (Homo sapiens); experiment: Increase in non-lysosomal activity of glucocerebrosidase N370S mutant in human L444P cells at 50 uM relative to Conduritol B epoxide; type: cell-based
# [5] = target: T1, Lysosomal acid glucosylceramidase (Homo sapiens); experiment: Increase in non-lysosomal activity of glucocerebrosidase N370S mutant in human L444P cells at 30 uM relative to Conduritol B epoxide; type: cell-based
# L444P [6] = experiment: Increase in non-lysosomal activity of glucocerebrosidase […] mutant in human L444P cells at 20 uM relative to Conduritol B epoxide; type: cell-based
# [7] = target: T1, Lysosomal acid glucosylceramidase (Homo sapiens); experiment: Increase in non-lysosomal activity of glucocerebrosidase N370S mutant in human L444P cells at 20 uM relative to Conduritol B epoxide; type: cell-based
# L444P [8] = experiment: Increase in non-lysosomal activity of glucocerebrosidase […] mutant in human L444P cells at 50 uM relative to Conduritol B epoxide; type: cell-based
Activity [1],IC50 [3] [µM],Activity [4],Activity [5],Activity [7],SMILES,Activity (L444P [2]),Activity (L444P [6]),Activity (L444P [8])
–,507,–,2.2,–,O=C(CCCN1[C@H](CO)[C@@H](O)[C@H](O)[C@@H]1CO)NC12CC3CC(CC(C3)C1)C2,–,1.6,–
–,393,–,–,1.4,O=C(CCCCN1[C@H](CO)[C@@H](O)[C@H](O)[C@@H]1CO)NC12CC3CC(CC(C3)C1)C2,–,–,2.2

# More lines, now with the values behind:
SMILES,Activity [1],IC50 [3] [µM],Activity [4],Activity [5],Activity [7],Activity (L444P [2]),Activity (L444P [6]),Activity (L444P [8])
O=C(CCCCCN1C[C@H](CO)[C@@H](O)[C@H](O)C1)NC12CC3CC(CC(C3)C1)C2,2.3,94,–,–,–,5.1,–,–
O=C(CCCCN1C[C@H](CO)[C@@H](O)[C@H](O)C1)NC12CC3CC(CC(C3)C1)C2,–,11,1.9,–,–,7.2,–,–
O=C(CCCN1C[C@H](CO)[C@@H](O)[C@H](O)C1)NC12CC3CC(CC(C3)C1)C2,2.5,18,–,–,–,7,–,–
